Here are results for 47 compounds from patent US10065950B2, “Substituted thiazoles as HIV integrase inhibitors” (Japan Tobacco Inc., priority 2010, dated 2018).

The IC50 is the point on the concentration scale where inhibition reaches its midpoint.

The target in this experiment is HIV-1 pNL4-3 integrase (Human immunodeficiency virus type 1 group M subtype B (isolate NY5) (HIV-1), UniProt P12497). The experiment can be described thus: Determination of enzyme (HIV integrase) inhibitory activity. Type of experiment: biochemical. The settings on record: calculated from inhibition rate (fluorescence). On the procedure: The following explains evaluation methods of the HIV integrase inhibitory activity of the compound of the present invention.
A full-length gene sequence (Accession No.: M19921) of HIV-1 pNL4-3 integrase was inserted into restriction enzyme Nde I and Xho I sites of plasmid pET21a(+) (manufactured by Novagen) to construct an integrase expression vector pET21a-IN-Wild type.
Escherichia coli recombinant BL21(DE3) transformed with plasmid pET21a-IN-Wild type obtained in (i) was shake cultured at 30° C. in a liquid medium containing ampicillin. When the culture reached the logarithmic growth phase, isopropyl-β-D-thiogalactopyranoside was added to promote expression of integrase gene. The culture was continued for 5 hr to promote accumulation of the integrase protein. The recombinant E. coli was collected in pellets by centrifugal separation and preserved at −80° C.
This Escherichia coli was suspended in Lysis buffer (50 mM Tris-HCl (pH 7.6), 10 mM MgCl2, 5 mM DTT), and disrupted by repeating treatments of pressurization and depressurization, and insoluble fraction was collected by centrifugation at 4° C., 18,000 rpm for 60 min. This was suspended in Lysis buffer containing a protease inhibitor, […] and 10 mM CHAPS were added, and the mixture was stirred at 4° C. for 30 min. Water-soluble fraction was collected by centrifugation at 4° C., 9,000 rpm for 30 min. The obtained fraction was diluted with a column buffer (50 mM Tris-HCl (pH 7.6), 1 mM DTT, 10% Glycerol, 10 mM CHAPS) to 5-fold, and the mixture was applied to heparin column (HiPrep 16/10 Heparin FF column: manufactured by GE Healthcare Bio-Sciences). Using a column buffer containing 1M NaCl, a protein was eluted with 0-1M NaCl concentration gradient, and an eluted fraction containing an integrase protein was collected. The obtained fraction was diluted 5-fold with a column buffer (50 mM Tris-HCl (pH 7.6), 1 mM DTT, 10% Glycerol, 10 mM CHAPS), and the mixture was applied to cation exchange column (Mono-S column: manufactured by GE Healthcare Bio-Sciences). Using a column buffer containing 1M NaCl, a protein was eluted with 0-1M NaCl concentration gradient, and an eluted fraction containing an integrase protein was collected. The obtained fractions of the integrase protein were collected, and preserved at −80° C.
The following DNA synthesized by FASMAC was dissolved in TE buffer (10 mM Tris-hydrochloric acid (pH 8.0), 1 mM EDTA) and mixed with donor DNA, target DNA, and each complementary strand (+ and − strands) to 1 μM. The mixture was heated at 95° C. for 5 min, 80° C. for 10 min, 70° C. for 10 min, 60° C. for 10 min, 50° C. for 10 min and 40° C. for 10 min and kept at 25° C. to give a double stranded DNA, which was used for the test.
Donor DNA (+strand having biotin attached to the 5′ terminal)
Target DNA (+, − strands both having digoxigenin attached to the 3′ terminal)
The donor DNA was diluted with TE buffer to 20 nM, of which 50 μL was added to each well of streptavidin-coated black plate (manufactured by PIAS Corporation) and allowed to adsorb at 37° C. for 20 min. The plate was washed with phosphate buffer (Dulbecco's PBS, Sanko Junyaku Co., Ltd.) containing 0.1% Tween 20 and phosphate buffer. Then, an enzyme reaction mixture (70 μL), a test substance (10 μL) diluted with the enzyme reaction mixture and 0.75 μM integrase protein (10 μL) were added to each well and the mixture was reacted at 37° C. for 60 min. composition of enzyme reaction mixture: 30 mM MOPS (3-morpholinopropanesulfonic acid), 5 mM magnesium chloride, 3 mM DTT (dithiothreitol), 0.1 mg/mL BSA (bovine serum albumin), 5% glycerol, 10% DMSO (dimethyl sulfoxide), 0.01% Tween 20.
Then, 25 nM target DNA (10 μL) was added, and the mixture was reacted at 37° C. for 20 min and washed with phosphate buffer containing 0.1% Tween 20 to stop the reaction. […]
For the compound `CC(C)N1C[C@](C)(C(=O)N2CC[C@H](O)C2)n2cc(-c3nnc(Cc4ccc(F)cc4)s3)c(=O)c(O)c2C1=O` [Example 204], the IC50 is 13 nM. On to `CCN(C)C(=O)CC1CN(C(C)C)C(=O)c2c(O)c(=O)c(-c3ncc(Cc4ccc(F)cc4F)s3)cn21` (centres unmarked) [Example 76], for which the IC50 was 8.3 nM. For the compound `COC[C@H]1CN(C(C)C)C(=O)c2c(O)c(=O)c(-c3nnc(Cc4cccc(Cl)c4)s3)cn21` [Example 228], the IC50 is 11 nM. The figure for `CCN1C(=O)c2c(O)c(=O)c(-c3nnc(Cc4ccc(F)cc4)s3)cn2C[C@@H]1[C@@H](C)OC` [Example 395] is 10 nM; for `COCCOC[C@H]1CN(CC2CC2)C(=O)c2c(O)c(=O)c(-c3nnc(Cc4ccc(F)cc4)s3)cn21` [Example 118] it is 13 nM; for `COC[C@H]1CN(C(C)C)C(=O)c2c(O)c(=O)c(-c3nnc(CCc4ccc(F)cc4)s3)cn21` [Example 241] it is 14 nM.

As to `CC(C)N1C(=O)c2c(O)c(=O)c(-c3nnc(Cc4ccc(F)cc4F)s3)cn2C[C@H]1C` [Example 156], the IC50 was 4.6 nM. As to `CCN1C(=O)c2c(O)c(=O)c(-c3ncc(Cc4ccc(F)cc4)s3)cn2C[C@H]1[C@H](C)OC` [Example 333], the IC50 is 7.5 nM. As to `CCC(CC)N1C(=O)c2c(O)c(=O)c(-c3nnc(Cc4ccc(F)cc4)s3)cn2C[C@H]1COC` [Example 295], the IC50 was 12 nM. On to `CCCN1C[C@H](COCC)n2cc(-c3nnc(Cc4ccc(F)cc4)s3)c(=O)c(O)c2C1=O` [Example 357], for which the IC50 is 7.3 nM. For `CCN1C[C@@H](COCCOC)n2cc(-c3nnc(Cc4ccc(F)cc4)s3)c(=O)c(O)c2C1=O` [Example 128] the value was 19 nM; for `CC(C)N1CC(C)(C(=O)N2CCC2)n2cc(-c3ncc(Cc4ccc(F)cc4F)s3)c(=O)c(O)c2C1=O` (centres unmarked) [Example 94], 8.8 nM; for `COCCOC[C@H]1Cn2cc(-c3nnc(Cc4ccc(F)cc4)s3)c(=O)c(O)c2C(=O)N1C(C)C` [Example 120], 15 nM. Regarding `C[C@@]1(C(=O)N2CCC2)CN(C2CC2)C(=O)c2c(O)c(=O)c(-c3ncc(Cc4ccc(F)cc4)s3)cn21` [Example 268], the IC50 was 15 nM. The figure for `CCN1C(=O)c2c(O)c(=O)c(-c3nnc(Cc4ccc(F)cc4F)s3)cn2C[C@H]1COC` [Example 102] is 7.1 nM; for `CCN1C(=O)c2c(O)c(=O)c(-c3nnc(Cc4ccc(F)cc4F)s3)cn2C[C@@H]1COCCOC` [Example 130] it is 13 nM; for `CCN1C[C@](C)(CO)n2cc(-c3nnc(Cc4ccc(F)cc4)s3)c(=O)c(O)c2C1=O` [Example 269] it is 9.4 nM. As for `COCC1Cn2cc(-c3nnc(Cc4ccc(F)cc4F)s3)c(=O)c(O)c2C(=O)N1CC(C)C` (centres unmarked) [Example 43], the IC50 was 4.6 nM. For `CCN1C(=O)c2c(O)c(=O)c(-c3nnc(CCc4ccc(F)cc4F)s3)cn2C[C@H]1COC` [Example 300], the IC50 was 9 nM.

`COC[C@H]1CN(CC2CC2)C(=O)c2c(O)c(=O)c(-c3nnc(Cc4ccc(F)cc4F)s3)cn21` [Example 117]: the IC50 is 9.4 nM.

Turning to `CCC(C)N1C(=O)c2c(O)c(=O)c(-c3nnc(Cc4ccc(F)cc4F)s3)cn2C[C@H]1COC` (some centres unmarked) [Example 145], the IC50 is 5.6 nM. As for `COCC1(COC)Cn2cc(-c3nnc(Cc4ccc(F)cc4)s3)c(=O)c(O)c2C(=O)N1C(C)C` [Example 320], the IC50 was 9.4 nM. For `COCC1CN(CC(C)C)C(=O)c2c(O)c(=O)c(-c3nnc(Cc4ccc(F)cc4F)s3)cn21` (centres unmarked) [Example 63] the value was 8.3 nM; for `CCCCOC[C@H]1CN(C(C)C)C(=O)c2c(O)c(=O)c(-c3nnc(Cc4ccc(F)cc4)s3)cn21` [Example 364], 10 nM; for `CC(=O)N(C)C[C@@]1(C)CN(C(C)C)C(=O)c2c(O)c(=O)c(-c3nnc(Cc4ccc(F)cc4F)s3)cn21` [Example 197], 14 nM. For `COCCOC[C@H]1CN(CC(C)(C)C)C(=O)c2c(O)c(=O)c(-c3nnc(Cc4ccc(F)cc4)s3)cn21` [Example 123] the value was 27 nM.

On to `CC(C)N1CC(CN)n2cc(-c3ncc(Cc4ccc(F)cc4F)s3)c(=O)c(O)c2C1=O` (centres unmarked) [Example 66], for which the IC50 is 6.4 nM. Turning to `CCNC(=O)[C@@]1(C)CN(CC)C(=O)c2c(O)c(=O)c(-c3nnc(Cc4ccc(F)cc4)s3)cn21` [Example 201], the IC50 is 9.5 nM. The figure for `CCN1C[C@](C)(C(=O)N(C)C)n2cc(-c3nnc(Cc4ccc(F)cc4)s3)c(=O)c(O)c2C1=O` [Example 199] is 8.4 nM. For `CCNC(=O)CC1CN(C2CC2)C(=O)c2c(O)c(=O)c(-c3ncc(Cc4ccc(F)cc4F)s3)cn21` (centres unmarked) [Example 165] the value was 7.4 nM. Regarding `CCOC[C@H]1CN(C(C)(C)C)C(=O)c2c(O)c(=O)c(-c3nnc(Cc4ccc(F)cc4)s3)cn21` [Example 361], the 50% inhibitory concentration (IC50) is 15 nM. The figure for `CC(C)C(=O)N(C)C[C@@H]1Cn2cc(-c3nnc(Cc4ccc(F)cc4F)s3)c(=O)c(O)c2C(=O)N1C(C)C` [Example 159] is 6.6 nM; for `COC[C@@H]1Cn2cc(-c3ncc(Cc4ccc(F)cc4)s3)c(=O)c(O)c2C(=O)N1CC1CC1` [Example 217] it is 5.3 nM. For `CN(C)C(=O)[C@@]1(C)CN(C)C(=O)c2c(O)c(=O)c(-c3ncc(Cc4ccc(F)cc4F)s3)cn21` [Example 336] the value was 7.2 nM; for `COC[C@H]1[C@@H](C)n2cc(-c3nnc(Cc4ccc(F)cc4)s3)c(=O)c(O)c2C(=O)N1C(C)C` [Example 353], 13 nM; for `CC(C)[C@@H]1Cn2cc(-c3nnc(Cc4ccc(F)cc4)s3)c(=O)c(O)c2C(=O)N1C(C)C` [Example 221], 8.4 nM.

Take `COC[C@H]1[C@@H](C)N(C(C)C)C(=O)c2c(O)c(=O)c(-c3nnc(Cc4ccc(F)cc4)s3)cn21` [Example 256]: the IC50 is 8.2 nM. For `CCC(=O)NCC1CN(C(C)C)C(=O)c2c(O)c(=O)c(-c3ncc(Cc4ccc(F)cc4F)s3)cn21` (centres unmarked) [Example 68], the IC50 was 9.8 nM. As to `CC(C)N1C(=O)c2c(O)c(=O)c(-c3nnc(Cc4ccc(F)cc4F)s3)cn2CC1CO` (centres unmarked) [Example 37], the IC50 is 6.3 nM.

Regarding `CC(C)N1CC(CC(=O)N(C)C)n2cc(-c3ncc(Cc4ccc(F)cc4F)s3)c(=O)c(O)c2C1=O` (centres unmarked) [Example 21], the IC50 is 9.4 nM. The figure for `CCN1C(=O)c2c(O)c(=O)c(-c3ncc(Cc4ccc(F)cc4)s3)cn2[C@@H](COC)[C@H]1C` [Example 261] is 11 nM; for `CCN1C(=O)c2c(O)c(=O)c(-c3nnc(Cc4ccc(F)cc4F)s3)cn2CC1(COC)COC` [Example 319] it is 5.8 nM. For the compound `CN(C)C(=O)[C@]1(C)CN(C)C(=O)c2c(O)c(=O)c(-c3ncc(Cc4ccc(F)cc4)s3)cn21` [Example 264], the IC50 is 8.5 nM. The figure for `CCNC(=O)[C@@]1(C)CN(C2CC2)C(=O)c2c(O)c(=O)c(-c3nnc(Cc4ccc(F)cc4)s3)cn21` [Example 187] is 19 nM. For `COC[C@H]1CN([C@@H](C)C(C)C)C(=O)c2c(O)c(=O)c(-c3nnc(Cc4ccc(F)cc4F)s3)cn21` [Example 136] the value was 11 nM; for `C[C@]1(C(=O)N2CCC2)CN(CC2CC2)C(=O)c2c(O)c(=O)c(-c3ncc(Cc4ccc(F)cc4)s3)cn21` [Example 255], 9 nM; for `CNC(=O)[C@@]1(C)CN(C(C)C)C(=O)c2c(O)c(=O)c(-c3nnc(Cc4ccc(F)cc4)s3)cn21` [Example 185], 15 nM.
